# Experimental data: patent US8648105B2, “Diarylthiohydantoin compounds” (The Regents of the University of California, priority 2006, dated 2014)
# Tests used:
# [1] = LogP; format: physicochemical
# [2] = molecular target: T1, AR (Homo sapiens, UniProt P10275); format: cell-based; design: rows headed: IC50 (nM) Reporter; Fold induction, AR response reporter; agonistic activity on AR response reporter (w); conditions: 125 nM to 1000 nM, FIG. 3
# T1 sequence (P10275 1-920): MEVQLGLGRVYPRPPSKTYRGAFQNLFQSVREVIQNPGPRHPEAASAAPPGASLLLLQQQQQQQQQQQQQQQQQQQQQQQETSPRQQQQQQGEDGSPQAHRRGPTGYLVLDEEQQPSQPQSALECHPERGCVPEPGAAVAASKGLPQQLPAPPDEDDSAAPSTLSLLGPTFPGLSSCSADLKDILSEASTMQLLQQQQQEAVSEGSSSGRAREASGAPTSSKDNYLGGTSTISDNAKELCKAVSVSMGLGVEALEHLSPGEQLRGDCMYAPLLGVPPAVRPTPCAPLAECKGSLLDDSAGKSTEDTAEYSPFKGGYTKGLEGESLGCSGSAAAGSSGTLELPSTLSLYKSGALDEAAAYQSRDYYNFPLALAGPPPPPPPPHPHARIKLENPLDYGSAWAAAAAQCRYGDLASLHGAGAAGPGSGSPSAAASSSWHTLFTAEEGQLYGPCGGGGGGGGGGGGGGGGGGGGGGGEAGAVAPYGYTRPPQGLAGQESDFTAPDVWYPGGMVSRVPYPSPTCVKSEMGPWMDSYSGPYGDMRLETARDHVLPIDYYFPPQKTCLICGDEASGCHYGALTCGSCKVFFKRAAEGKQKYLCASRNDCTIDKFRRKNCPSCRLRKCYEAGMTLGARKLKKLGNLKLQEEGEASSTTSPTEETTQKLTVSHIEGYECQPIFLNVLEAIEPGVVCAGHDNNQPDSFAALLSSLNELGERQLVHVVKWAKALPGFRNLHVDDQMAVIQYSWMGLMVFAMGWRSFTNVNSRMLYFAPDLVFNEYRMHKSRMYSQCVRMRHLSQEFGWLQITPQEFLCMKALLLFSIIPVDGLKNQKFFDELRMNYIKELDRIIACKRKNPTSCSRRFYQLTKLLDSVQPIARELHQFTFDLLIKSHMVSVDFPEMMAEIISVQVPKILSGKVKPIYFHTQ
# Protocol: The compounds were subjected to tests using an artificial AR response reporter system in a hormone refractory prostate cancer cell line. […] After two days of incubation, reporter activities were assayed.
structure (smiles),measurement,setting,value
"CNC(=O)c1ccc(N2C(=S)N(c3ccc(C#N)c(C(F)(F)F)c3)C(=O)C23CCC3)cc1F [NC53, N-methyl-4-[7-(4-cyano-3-trifluoromethylphenyl)-8-oxo-6-thioxo-5,7-diaza-spiro[3.4]oct-5-yl]-2-fluorobenzamide]",logP,[1],3.2
same,luciferase activity in LNCaP-AR cells,[2],acted to reduce luciferase activity
